Test [1] concerns T-Rex 293 cell line SC3 cells lacking increased expression of androgen receptor protein. The experiment in a line: Cellular growth inhibition, T-Rex 293 SC3 cells lacking increased androgen receptor expression (no doxycycline), CellTiter-Glo. Particulars: T-Rex 293 SC3 cells lacking increased androgen receptor expression (not exposed to doxycycline), 72 hours, CellTiter-Glo; read-out: GI50. It counts as cell-based. As to the method:
(§1) The following types of cells were prepared for this experiment: (i) a T-Rex 293 cell line having increased expression of androgen receptor protein due to exposure to doxycycline and (ii) a T-Rex 293 cell line lacking increased expression of androgen receptor protein. Ability of the test compounds to inhibit proliferation of the foregoing cell types was evaluated according to the procedures set forth below.
(§2) The doxycycline-inducible androgen receptor protein expressing cell line was established using the following protocol: T-Rex 293 cells were purchased from Invitrogen (Cat #R71007) and transfected using Lipofectamine 2000 with the wild-type androgen receptor protein sequence cloned into the pcDNA4/TO vector. Transfected cells were selected using 400 μg/mL Zeocin (Invitrogen Cat #R25001). Following selection, single clones were raised and maintained in Dulbecco's Modified Eagle Medium (DMEM) supplemented with 10% w/w Tetracycline-free fetal bovine serum (FBS) and 250 μg/mL Zeocin. Clones were analyzed for expression of androgen receptor protein in the presence and absence of 10 ng/ml doxycycline (Sigma Cat #D9891), and a single doxycycline-inducible clone (hereinafter “SC3”) was selected for use in downstream assays.
(§3) The SC3 cells were seeded on poly-D-lysine coated, black clear-bottom 384-well plates at 2500/well, in 25 μL Phenol Red Free Dulbecco's Modified Eagle Medium (DMEM) supplemented with 10% w/w charcoal-dextran treated fetal bovine serum (FBS) and 1% w/w pen-strep, with or without 10 ng/mL doxycycline. Pen-Strep is a commercially available mixture of penicillin G and streptomycin, which is used in mammalian cell culture media to prevent bacterial contamination. Phenol Red Free Dulbecco's Modified Eagle Medium (DMEM) supplemented with 10% w/w charcoal-dextran treated fetal bovine serum (FBS) and 1% w/w pen-strep, with or without 10 ng/mL doxycycline is herein referred to as Treatment Medium. Following seeding of cells in the plates, the plates were spun at 300×g for 30 seconds, then equilibrated to room temperature for 30 minutes, and then deposited in a humidified tissue culture incubator maintained at 37° C. with 5% CO2.
(§4) At 24 hours after seeding of the cells, dilutions of test compound were prepared in DMSO and dissolved in Treatment Medium, to achieve a final DMSO concentration of 0.5% w/w, thereby providing the Test Compound Solution. A 25 μL aliquot of the Test Compound Solution was added to cells in the well plates. An equal volume of a solution containing DMSO and Treatment Medium was used as a negative control. Following treatment of cells with Test Compound Solution or said equal volume of a solution containing DMSO and Treatment Medium, the plates were spun at 300×g for 30 seconds, and then left in an incubator for 72 hours.
(§5) At the end of the treatment duration, cell viability was quantified with CellTiter-Glo 2.0 reagent (Promega Cat #G9243). For this purpose, plates were equilibrated to room temperature for 30 minutes, and then 25 μL of CellTiter-Glo 2.0 reagent was added to cells in the plate wells. Plates were then agitated on a shaker for two minutes at 500 rpm and subsequently incubated at room temperature for 10 minutes. Following incubation, the plates were spun at 3000×g for 30 seconds, then sealed with an optical adhesive cover, and luminescence readings were measured with an EnVision Plate Reader.
(§6) Data was normalized using zero luminescence for baseline. A four-parameter non-linear regression curve fit was applied to dose-response data in GraphPad Prism data analysis software to determine the half-maximal growth inhibitory concentration (GI50) for each test compound.
A general note: ATP-based viability assays read luminescence as a measure of living cells.

The test system of the next test is VCaP cells. The experiment in a line: Cellular growth inhibition assay for VCaP cells, CellTiter-Glo. It counts as cell-based, human. The settings on record: VCaP cells, 72 hours, CellTiter-Glo, read-out: GI50. As to the method:
VCaP cells were purchased from American Type Cell Culture (ATCC Cat #CRL2876) and then seeded on poly-D-lysine coated, black clear-bottom 384-well plates at 5000/well in 25 μL Dulbecco's Modified Eagle Medium (DMEM) supplemented with 10% w/w Fetal bovine serum (FBS) and 1% w/w Pen-Strep. Pen-Strep is a commercially available mixture of penicillin G and streptomycin, which is used in mammalian cell culture media to prevent bacterial contamination. Dulbecco's Modified Eagle Medium (DMEM) supplemented with 10% w/w fetal bovine serum (FBS) and 1% w/w Pen-Strep is herein referred to as Treatment Medium. Following seeding of cells in the plates, the plates were spun at 300×g for 30 seconds, then equilibrated to room temperature for 30 minutes, and then deposited in a humidified tissue culture incubator maintained at 37° C. with 5% CO2.
as §4, §5, §6

Test [2] concerns T-Rex 293 cell line SC3 cells having increased expression of androgen receptor protein. The experiment in a line: Cellular growth inhibition, T-Rex 293 SC3 cells with increased androgen receptor expression (doxycycline), CellTiter-Glo. The settings on record: T-Rex 293 SC3 cells with increased androgen receptor expression (exposed to 10 ng/mL doxycycline), 72 hours, CellTiter-Glo; read-out: GI50. It counts as cell-based. As to the method: as §1, §2, §3, §4, §5, §6

Where two headings read alike, the source gives them in different places.

As a reminder, the GI50 is the concentration at which growth is held to half of that of the control. For the compound `CCS(=O)(=O)c1ccc(Oc2ccc(CCC3CCN(c4ccc(C(=O)NC5CCC(Oc6ccc(C#N)c(Cl)c6)CC5)nn4)CC3)cc2F)c(-c2cn(C)c(=O)c3[nH]ccc23)c1` (stereo not drawn) [I-45, N-[4-(3-chloro-4-cyano-phenoxy)cyclohexyl]-6-[4-[2-[4-[4-ethylsulfonyl-2-(6-methyl-7-oxo-1H-pyrrolo[2,3-c]pyridin-4-yl)phenoxy]-3-fluoro-phenyl]ethyl]-1-piperidyl]pyridazine-3-carboxamide], the concentration for 50% growth inhibition (GI50) (in test [1]; in the test on VCaP cells (Homo sapiens); in test [2]) was under 500 nM in each case.
On to `CCS(=O)(=O)c1ccc(Oc2cccc(CCCN3CCN(c4ccc(C(=O)N[C@H]5CC[C@H](Oc6ccc(C#N)c(Cl)c6)CC5)nn4)CC3)c2F)c(-c2cn(C)c(=O)c3[nH]ccc23)c1` [I-62], for which the GI50 (in test [1]; with VCaP cells; in test [2]) was under 500 nM in each case.
Take `CCS(=O)(=O)c1ccc(Oc2ccc(CCN3CC4(C3)CN(c3ccc(C(=O)N[C@H]5CC[C@H](Oc6ccc(C#N)c(Cl)c6)CC5)nn3)C4)cc2)c(-c2cn(C)c(=O)c3[nH]ccc23)c1` [I-63]: the 50% growth inhibitory concentration (GI50) (in test [1]; in the test on VCaP cells; in test [2]) was under 500 nM in each case.
In the case of `CCS(=O)(=O)c1ccc(Oc2ccc(CCCCC3CCN(c4ccc(C(=O)N[C@H]5CC[C@H](Oc6ccc(C#N)c(Cl)c6)CC5)nn4)CC3)cc2)c(-c2cn(C)c(=O)c3[nH]ccc23)c1` [I-64], the GI50 in test [1] is 500 to 1500 nM; with VCaP cells, under 500 nM; in test [2], under 500 nM.
As for `CCS(=O)(=O)c1ccc(Oc2cccc(CCCC3CCN(c4ncc(C(=O)N[C@H]5CC[C@H](Oc6ccc(C#N)c(Cl)c6)CC5)cn4)CC3)c2F)c(-c2cn(C)c(=O)c3[nH]ccc23)c1` [I-65], the GI50 in test [1] is over 3000 nM; in the test on VCaP cells, under 500 nM; in test [2], under 500 nM.
As to `CCS(=O)(=O)c1ccc(Oc2ccc(CCCC3CCN(c4ccc(C(=O)N[C@H]5CC[C@H](Oc6ccc(C#N)c(Cl)c6)CC5)nn4)CC3)c(F)c2)c(-c2cn(C)c(=O)c3[nH]ccc23)c1` [I-83], the GI50 (in test [1]; in the test with VCaP cells (Homo sapiens); in test [2]) was under 500 nM each time.
On to `Cn1cc(-c2cc(S(=O)(=O)CCCN3CCN(c4ccc(C(=O)N[C@H]5CC[C@H](Oc6ccc(C#N)c(Cl)c6)CC5)nn4)CC3)ccc2Oc2ccc(F)cc2F)c2cc[nH]c2c1=O` [I-93], for which the GI50 in test [1] is over 3000 nM; in the test on VCaP cells it was under 500 nM; in test [2] it was under 500 nM.
For the compound `Cn1cc(-c2cc(C(C)(C)O)ccc2Oc2ccc(C3CC4(CCN(c5ccc(C(=O)N[C@H]6CC[C@H](Oc7ccc(C#N)c(Cl)c7)CC6)nn5)CC4)C3)cc2)c2cc[nH]c2c1=O` [I-117], the GI50 (in test [1]; in the test with VCaP cells; in test [2]) was under 500 nM each time.
For the compound `Cn1cc(-c2cc(C(C)(C)O)ccc2Oc2ccc(CC3CC4(C3)CN(c3ccc(C(=O)N[C@H]5CC[C@H](Oc6ccc(C#N)c(Cl)c6)CC5)nn3)C4)cc2)c2cc[nH]c2c1=O` [I-118], the GI50 (in test [1]; with VCaP cells (Homo sapiens); in test [2]) was under 500 nM throughout.
In the case of `Cn1cc(-c2cc(C(C)(C)O)ccc2Oc2ccc(CN3CC4(CCN(c5ccc(C(=O)N[C@H]6CC[C@H](Oc7ccc(C#N)c(Cl)c7)CC6)nn5)CC4)C3)cc2)c2cc[nH]c2c1=O` [I-120], the concentration for 50% growth inhibition (GI50) (in test [1]; with VCaP cells (Homo sapiens); in test [2]) was under 500 nM each time.
On to `Cn1cc(-c2cc(C(C)(C)O)ccc2Oc2ccc(CCN3CC4(C3)CN(c3ccc(C(=O)N[C@H]5CC[C@H](Oc6ccc(C#N)c(Cl)c6)CC5)nn3)C4)cc2)c2cc[nH]c2c1=O` [I-121], for which the GI50 in test [1] was 500 to 1500 nM; in the test with VCaP cells, under 500 nM; in test [2], under 500 nM.
With `Cn1cc(-c2cc(C(C)(C)O)ccc2Oc2cccc(N3CC(N(C4CC4)C4CCN(c5ccc(C(=O)N[C@H]6CC[C@H](Oc7ccc(C#N)c(Cl)c7)CC6)nn5)CC4)C3)c2F)c2cc[nH]c2c1=O` [I-145], the results for the GI50 (in test [1]; with VCaP cells; in test [2]) were over 3000 nM, under 500 nM and under 500 nM, respectively.
For `Cn1cc(-c2cc(C(C)(C)O)ccc2Cc2ccc(CCC3CCN(c4ccc(C(=O)NC5CCC(Oc6ccc(C#N)c(Cl)c6)CC5)nn4)CC3)cc2)c2cc[nH]c2c1=O` (stereo not drawn) [I-205, N-[4-(3-chloro-4-cyano-phenoxy)cyclohexyl]-6-[4-[2-[4-[[4-(1-hydroxy-1-methyl-ethyl)-2-(6-methyl-7-oxo-1H-pyrrolo[2,3-c]pyridin-4-yl)phenyl]methyl]phenyl]ethyl]-1-piperidyl]pyridazine-3-carboxamide], the values for the GI50 (in test [1]; in the test with VCaP cells (Homo sapiens); in test [2]) were over 3000 nM, 500 to 1500 nM and under 500 nM, respectively.
`Cn1cc(-c2cc(NC(=O)CCC3CCN(c4ccc(C(=O)NC5CCC(Oc6ccc(C#N)c(Cl)c6)CC5)nn4)CC3)ccc2Oc2ccc(F)cc2F)c2cc[nH]c2c1=O` (stereo not drawn) [I-212, N-[4-(3-chloro-4-cyano-phenoxy)cyclohexyl]-6-[4-[3-[4-(2,4-difluorophenoxy)-3-(6-methyl-7-oxo-1H-pyrrolo[2,3-c]pyridin-4-yl)anilino]-3-oxo-propyl]-1-piperidyl]pyridazine-3-carboxamide]: the concentration for 50% growth inhibition (GI50) was over 3000 nM in test [1], over 3000 nM in the test on VCaP cells (Homo sapiens) and under 500 nM in test [2].
For `Cn1cc(-c2cc(NC(=O)CCCCCOC3CCN(c4ccc(C(=O)N[C@H]5CC[C@H](Oc6ccc(C#N)c(Cl)c6)CC5)nn4)CC3)ccc2Oc2ccc(F)cc2F)c2cc[nH]c2c1=O` [I-215], the figures for the GI50 (in test [1]; in the test on VCaP cells; in test [2]) were 500 to 1500 nM, over 3000 nM and under 500 nM, respectively.
The like results for `CCS(=O)(=O)c1ccc(Oc2ccc(CCC3CCN(c4ccc(C(=O)N[C@H]5CC[C@H](Oc6ccc(C#N)c(Cl)c6)CC5)nn4)CC3)cn2)c(-c2cn(C)c(=O)c3[nH]ccc23)c1` [I-220] were, in that order, over 3000 nM, over 3000 nM and under 500 nM.
Take `Cn1cc(-c2cc(C3(O)COC3)ccc2Oc2ccc(OCC3CCN(c4ccc(C(=O)NC5CCC(Oc6ccc(C#N)c(Cl)c6)CC5)nn4)CC3)cc2)c2cc[nH]c2c1=O` (stereo not drawn) [I-236, N-[4-(3-chloro-4-cyano-phenoxy)cyclohexyl]-6-[4-[[4-[4-(3-hydroxyoxetan-3-yl)-2-(6-methyl-7-oxo-1H-pyrrolo[2,3-c]pyridin-4-yl)phenoxy]phenoxy]methyl]-1-piperidyl]pyridazine-3-carboxamide]: the GI50 was over 3000 nM in test [1], under 500 nM with VCaP cells and under 500 nM in test [2].
Turning to `Cn1cc(-c2cc(CS(C)(=O)=O)ccc2Oc2ccc(CCC3CCN(c4ccc(C(=O)NC5CCC(Oc6ccc(C#N)c(Cl)c6)CC5)nn4)CC3)cc2)c2cc[nH]c2c1=O` (stereo not drawn) [I-237, N-[4-(3-chloro-4-cyano-phenoxy)cyclohexyl]-6-[4-[2-[4-[2-(6-methyl-7-oxo-1H-pyrrolo[2,3-c]pyridin-4-yl)-4-(methylsulfonylmethyl)phenoxy]phenyl]ethyl]-1-piperidyl]pyridazine-3-carboxamide], the GI50 (in test [1]; in the test with VCaP cells (Homo sapiens); in test [2]) was under 500 nM each time.

These data come from US20250388575A1, “HETEROBIFUNCTIONAL COMPOUNDS AND METHODS OF TREATING DISEASE” (Halda Therapeutics OpCo, Inc., priority 2022, published 2025).
